One data set relates to rumen fluid. The data set is described as follows: Inhibition of methane production and shift of volatile fatty acids in incubated rumen fluid (in vitro fermentation of hay). The arrangement: species or system steers. The settings on record: for % methane in total gas: 39° C., 15-16 hours, control 8.37; for Ac/Bu: acetate/butyrate, control 3.92; for Ac/Pr: acetate/propionate, control 1.90; for % inhibition of methane / Ac/Bu, expressed as percentage of untreated controls / Ac/Pr, expressed as percentage of untreated controls: relative to untreated controls; for Ac/Bu, expressed as percentage of untreated controls / Ac/Pr, expressed as percentage of untreated controls: signed values. Here is the method: Rumen fluid is collected on a regular routine basis from two steers, which are fed on the same hay-plus-concentrate diet. Sampling time is standarised as far as possible, and the fluid from the two animals is pooled on a 50/50 basis. Large particulate matter is removed by filtering the pooled fluid through four layers of muslin cloth. The filtrate is then diluted in the ratio of one volume of filtrate to three volumes of an artificial rumen fluid (prepared as described by G. L. Bales et al., Journal of Diary Science, 1976, volume 59, page 1850, but omitting acetic acid), and the pH of the mixture is adjusted to 6.9-7.0 with saturated aqueous sodium carbonate solution. Aliquots (50 ml.) of this mixture are dispensed into 100 ml. conical flasks containing dried ground hay (0.5 g.), and each flask is used to test a test compound at a particular concentration.
The test compound is added to the conical flask as a solution in ethanol, the flask is flushed with carbon dioxide gas, stoppered with a suba-seal, and incubated at 39° C. for 15-16 hours. After one hour, a narrow bore needle is inserted through the suba-seal to relieve the gas pressure, and the needle is withdrawn 30 minutes before the incubation is ended. Fermentation is then stopped by placing the flask in ice, and after 15 minutes cooling, the gas over the liquid is analysed for methane by gas chromatrography. The flask contents are then filtered through a previously dried and weighed sintered glass funnel, the funnel is oven-dried and, by difference, the weight of hay digested is determined. (Blank flasks containing no hay are treated similarly to determine non-cellulose residue). Three samples of the filtrate are analysed by gas chromatography for VFAs, and by comparison with the previously determined, pre-incubationlevel of VFAs, the net VFAs (acetate, propionate and butyrate) produced during the incubation is determined.
The test process described in Example 2 was repeated, comparing aplasmomycin with Factor B and C. The following results were obtained, expressed as percentages of the values obtained in untreated controls: […]

A further data set relates to chick kidney cells. The data set is described as follows: Toxic effects on the host cells (chick kidney cells) in the anticoccidial test. The note with it: only shows toxic effects at this concentration. The data set is classed as cell-based.
For a further data set, the system named is Eimeria tenella. As to the kind of experiment: Anticoccidial activity: preventing coccidial growth in cultures of chick kidney cells inoculated with sporozites. The data set is classed as cell-based. The note with it: for anticoccidial activity (in words): cultures of chick kidney cells.
Data set [1] relates to rumen metabolism of sheep. As to the kind of experiment: Short term effects on the rumen metabolism of sheep (rumen V.F.A. composition). Format: in vivo. The note with it: 6 hours after treatment. Here is the method: The rumen fermentation patterns of a group of sheep were stabilised by feeding them a standard diet of dried grass (2×500 g. per day) for some months. Six test animals were used for each inclusion level of each test compound. […] Samples of rumen fluid were collected by stomach tube from each animal 6 hours after treatment, and analysed by gas-chromatography for acetate, propionate and butyrate.

The mark [2] stands for this setting: Day 4, 0.25 mg/kg, control 10.2.
Setting [3] is: Day 4, 0.25 mg/kg, control 24.0.
[4] abbreviates: Day 4, 0.25 mg/kg, control 64.5.
Setting [5] is: Day 7, 0.25 mg/kg, control 10.7.
[6] abbreviates: Day 7, 0.25 mg/kg, control 22.9.
Where [7] appears, read: Day 7, 0.25 mg/kg, control 65.6.

SMILES strings stand for the structures.

We go through 4 compounds from US4225593A, “Growth promotion” (Imperial Chemical Industries Limited, priority 1977, dated 1980).

In the case of `C[C@@H]1CC[C@@H]2O[C@]13O[B-]14O[C@H]3C(=O)O[C@H]3C[C@@H](/C=C/C[C@@H](O)C(C)(C)[C@@H]5CC[C@@H](C)[C@](O5)(O1)[C@@H](O4)C(=O)O[C@H]1C[C@@H](/C=C/C[C@@H](O)C2(C)C)O[C@@H]1C)O[C@@H]3C.[Na+]` [Aplasmomycin, aplasmomycin], the “% methane in total gas” value in the data set with rumen fluid (0.1 μg./ml.) was 7.87%; in the data set on rumen fluid (0.3 μg./ml.), 5.72%; with rumen fluid (0.5 μg./ml.), 4.87%; in the data set with rumen fluid (1 μg./ml.), 3.81%; with rumen fluid (3 μg./ml.), 2.58%. The Ac/Bu was 4.22 with rumen fluid (0.1 μg./ml.); 4.75 in the data set with rumen fluid (0.3 μg./ml.); 4.56 in the data set on rumen fluid (0.5 μg./ml.); 4.26 in the data set on rumen fluid (1 μg./ml.); 3.52 in the data set on rumen fluid (3 μg./ml.). The Ac/Pr in the data set on rumen fluid (0.1 μg./ml.) was found to be 1.63; in the data set on rumen fluid (0.3 μg./ml.), 1.36; in the data set on rumen fluid (0.5 μg./ml.), 1.29; with rumen fluid (1 μg./ml.) it was 1.26; in the data set on rumen fluid (3 μg./ml.), 1.34. Besides, the “% inhibition of methane” value in the data set on rumen fluid (1 ppm) was found to be 57%; with rumen fluid (3 ppm), 69%. Besides, the “Ac/Bu, expressed as percentage of untreated controls” value (“Ac/Bu, expressed as percentage” below) is given as -36 percentages with rumen fluid (1 ppm) and -49 percentages in the data set with rumen fluid (3 ppm). In addition, the “Ac/Pr, expressed as percentage of untreated controls” value (shortened to “Ac/Pr, expressed as percentage”) with rumen fluid (1 ppm) is given as -41 percentages; in the data set with rumen fluid (3 ppm), -40 percentages. Further, in the data set on rumen fluid (rumen fluid, weight of hay digested), the “effect on the overall digestive process (in words)” value is listed as “without at the same time depressing the overall digestive process”. Moreover, the “concentration showing toxic effects on the host cells” value in the data set on chick kidney cells is 9 ppm. Further, in the data set on Eimeria tenella, the “anticoccidial activity (in words)” value was “show anticoccidial activity”. For the same compound, the “concentration showing activity against Eimeria tenella” value in the data set on Eimeria tenella (cultures of chick kidney cells inoculated with sporozites) was found to be 0.037 ppm. Moreover, the “Molar % rumen V.F.A.: Butyrate” value was 9.8 Molar % in data set [1] (setting [2]); 9.9 Molar % in data set [1] (Day 4, 0.5 mg/kg, control 10.2); 9.9 Molar % in data set [1] (setting [5]); 9.2 Molar % in data set [1] (Day 7, 0.5 mg/kg, control 10.7). Further, the “Molar % rumen V.F.A.: Propionate” value in data set [1] (setting [3]) was determined as 25.1 Molar %; in data set [1] (Day 4, 0.5 mg/kg, control 24.0) it was 25.5 Molar %; in data set [1] (setting [6]) it was 24.8 Molar %; in data set [1] (Day 7, 0.5 mg/kg, control 22.9) it was 26.6 Molar %. In addition, the “Molar % rumen V.F.A.: Acetate” value was found to be 63.7 Molar % in data set [1] (setting [4]); 63.4 Molar % in data set [1] (Day 4, 0.5 mg/kg, control 64.5); 63.8 Molar % in data set [1] (setting [7]); 62.6 Molar % in data set [1] (Day 7, 0.5 mg/kg, control 65.6).
For the compound `CC(=O)OC1C/C=C/C2CC(OC(=O)C3O[B-]45OC(C(=O)OC6CC(/C=C/CC(O)C(C)(C)C7CCC(C)C3(O7)O4)OC6C)C3(OC(CCC3C)C1(C)C)O5)C(C)O2` (centres unmarked) [Factor B], the “% inhibition of methane” value with rumen fluid (1 ppm) came to 63%; in the data set with rumen fluid (3 ppm) it was 76%. For the same compound, the “Ac/Bu, expressed as percentage” value in the data set on rumen fluid (1 ppm) is reported as “+21 percentages”; in the data set on rumen fluid (3 ppm), -18 percentages. Besides, the results for the “Ac/Pr, expressed as percentage” value in the data set with rumen fluid (1 ppm) and in the data set with rumen fluid (3 ppm) were -48 percentages and -45 percentages, respectively. Also, the “anticoccidial activity (in words)” value with Eimeria tenella is “show anticoccidial activity”. The “Molar % rumen V.F.A.: Butyrate” value was found to be 11.3 Molar % in data set [1] (setting [2]); 11.3 Molar % in data set [1] (Day 4, 0.5 mg/kg, control 10.2); 11.7 Molar % in data set [1] (setting [5]); 8.9 Molar % in data set [1] (Day 7, 0.5 mg/kg, control 10.7). Further, the “Molar % rumen V.F.A.: Propionate” value is 22.3 Molar % in data set [1] (setting [3]); 22.4 Molar % in data set [1] (Day 4, 0.5 mg/kg, control 24.0); 22.1 Molar % in data set [1] (setting [6]); 25.9 Molar % in data set [1] (Day 7, 0.5 mg/kg, control 22.9). In addition, the “Molar % rumen V.F.A.: Acetate” value in data set [1] (setting [4]) is 65.1 Molar %; in data set [1] (Day 4, 0.5 mg/kg, control 64.5), 65.0 Molar %; in data set [1] (setting [7]), 63.5 Molar %; in data set [1] (Day 7, 0.5 mg/kg, control 65.6) it was 63.5 Molar %.
`CC(=O)OC1C/C=C/C2CC(OC(=O)C3O[B-]45OC(C(=O)OC6CC(/C=C/CC(OC(C)=O)C(C)(C)C7CCC(C)C3(O7)O4)OC6C)C3(OC(CCC3C)C1(C)C)O5)C(C)O2` (centres unmarked) [Factor C]: in the data set with rumen fluid (1 ppm), the “% inhibition of methane” value came out at 15%; the “Ac/Bu, expressed as percentage” value is reported as “+18 percentages”; the “Ac/Pr, expressed as percentage” value is -33 percentages. Also, in the data set on rumen fluid (3 ppm), the “% inhibition of methane” value was 44%; the “Ac/Bu, expressed as percentage” value was “+22 percentages”; the “Ac/Pr, expressed as percentage” value is on record as -41 percentages. Also, the “anticoccidial activity (in words)” value in the data set on Eimeria tenella is “show anticoccidial activity”.
In the case of `CC[C@@]1([C@@H]2O[C@@H]([C@H]3O[C@@](O)(CO)[C@H](C)C[C@@H]3C)C[C@@H]2C)CC[C@H]([C@]2(C)CC[C@]3(C[C@H](O)[C@@H](C)[C@@H]([C@@H](C)[C@@H](OC)[C@H](C)C(=O)O)O3)O2)O1` [Monensin, monensin, reference compound], the “% methane in total gas” value in the data set with rumen fluid (0.1 μg./ml.) came out at 8.35%; in the data set with rumen fluid (0.3 μg./ml.) it was 7.53%; with rumen fluid (0.5 μg./ml.) it was 6.75%; in the data set on rumen fluid (1 μg./ml.), 5.62%; in the data set on rumen fluid (3 μg./ml.) it was 4.53%. In addition, the Ac/Bu came out at 4.22 with rumen fluid (0.1 μg./ml.); 4.11 with rumen fluid (0.3 μg./ml.); 4.03 in the data set on rumen fluid (0.5 μg./ml.); 3.21 in the data set with rumen fluid (1 μg./ml.); 3.39 with rumen fluid (3 μg./ml.). The Ac/Pr with rumen fluid (0.1 μg./ml.) is given as 1.80; in the data set on rumen fluid (0.3 μg./ml.), 1.65; in the data set on rumen fluid (0.5 μg./ml.), 1.61; in the data set with rumen fluid (1 μg./ml.), 1.51; with rumen fluid (3 μg./ml.), 1.54. Further, the “Molar % rumen V.F.A.: Butyrate” value in data set [1] (setting [2]) is reported as 9.9 Molar %; in data set [1] (Day 4, 0.5 mg/kg, control 10.2), 11.3 Molar %; in data set [1] (setting [5]), 11.4 Molar %; in data set [1] (Day 7, 0.5 mg/kg, control 10.7), 12.6 Molar %. The “Molar % rumen V.F.A.: Propionate” value is reported as 28.5 Molar % in data set [1] (setting [3]); 27.8 Molar % in data set [1] (Day 4, 0.5 mg/kg, control 24.0); 26.1 Molar % in data set [1] (setting [6]); 26.2 Molar % in data set [1] (Day 7, 0.5 mg/kg, control 22.9). Moreover, the “Molar % rumen V.F.A.: Acetate” value in data set [1] (setting [4]) is recorded as 60.5 Molar %; in data set [1] (Day 4, 0.5 mg/kg, control 64.5) it was 59.8 Molar %; in data set [1] (Day 7, 0.5 mg/kg, control 65.6) it was 60.2 Molar %.
